# Active and inactive are the calls of the source.
# How the values were obtained:
# [1] = biological target: RNA-editing ligase 1, mitochondrial (Trypanosoma brucei brucei, UniProt P86926); assay: inhibition of trypanosome RNA editing ligase – biochemical, fluorescence, Trypanosoma brucei, dose response (AID 1117295); format: functional
# cells [2] = assay: cells
# Major prion protein = Major prion protein (Homo sapiens, UniProt P04156); format: functional, cell-based
# [3] = Late stage counterscreen for inhibitors of Trypanosoma brucei methionyl tRNA synthetase (MetRS): Luminescence-based cell-based high throughput dose response assay to identify compounds that are cytotoxic to Jurkat human T lymphocyte cells.; format: functional
# [4] = NIH3T3 cell viability loss – ATP luminescence, mouse fibroblasts, counter-screen, dose response (AID 2010); format: functional, cell-based;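 also: cells exposed to compound for about 90 hours before reading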
# cells [5] = assay: cells; remark: listed apart in the source
# [6] = Luminescence Cell-Based Dose Retest to Confirm Inhibitors of Cancer Stem Cells. [Related pubchem assays (depositor defined):AID2717, AID2721]; format: functional; conditions: Homo sapiens
# [7] = Trypanosoma cruzi growth suppression in host cells – NIH3T3 host cells, beta-gal luminescence, confirmation (AID 2044); format: functional, cell-based;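 also: intracellular parasites grown in NIH/3T3 mouse fibroblasts as host cells; luminescent beta-galactosidase reporter signal from transgenic T. cruzi replicating inside host cells; inhibitors lower the luminescence signal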
# [8] = biological target: T1, Methionyl-tRNA synthetase, putative (Trypanosoma brucei brucei, UniProt Q38C91); format: functional, Trypanosoma brucei brucei strain 927/4 GUTat10.1
# T1 sequence (Q38C91 whole entry): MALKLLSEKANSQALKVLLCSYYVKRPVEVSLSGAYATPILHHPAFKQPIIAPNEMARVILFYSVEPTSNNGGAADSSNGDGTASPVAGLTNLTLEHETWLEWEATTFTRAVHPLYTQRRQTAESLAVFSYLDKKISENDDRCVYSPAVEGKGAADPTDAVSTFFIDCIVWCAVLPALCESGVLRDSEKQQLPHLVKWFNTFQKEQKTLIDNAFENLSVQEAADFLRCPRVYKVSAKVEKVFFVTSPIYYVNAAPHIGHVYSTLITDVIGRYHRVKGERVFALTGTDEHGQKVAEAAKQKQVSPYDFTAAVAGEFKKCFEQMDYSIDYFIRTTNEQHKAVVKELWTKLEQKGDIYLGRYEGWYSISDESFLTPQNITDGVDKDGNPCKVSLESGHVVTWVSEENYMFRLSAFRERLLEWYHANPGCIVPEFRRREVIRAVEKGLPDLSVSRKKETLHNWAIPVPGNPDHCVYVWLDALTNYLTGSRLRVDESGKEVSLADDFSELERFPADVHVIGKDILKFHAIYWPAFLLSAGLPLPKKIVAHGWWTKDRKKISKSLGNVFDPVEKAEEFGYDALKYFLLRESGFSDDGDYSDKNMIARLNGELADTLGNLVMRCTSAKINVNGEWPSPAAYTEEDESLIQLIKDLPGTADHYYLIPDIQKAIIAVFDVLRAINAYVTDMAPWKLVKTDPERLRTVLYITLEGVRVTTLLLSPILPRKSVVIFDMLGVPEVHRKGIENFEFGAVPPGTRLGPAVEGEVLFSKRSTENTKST
# [9] = biological target: T1, Methionyl-tRNA synthetase, putative; format: functional, Trypanosoma brucei brucei strain 927/4 GUTat10.1; remark: listed apart in the source
# [10] = Counterscreen for inhibitors of Trypanosoma brucei methionyl tRNA synthetase (MetRS): Luminescence-based cell-based high throughput dose response assay to identify compounds that are cytotoxic to Jurkat human T lymphocyte cells.; format: functional
# [11] = biological target: T2, Oxysterols receptor LXR-beta (Homo sapiens, UniProt P55055); format: functional, cell-based;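 also: agonist activity at LXR measured by a cell-based luminescence readout across a dose range, run as a counterscreen for daf-12 agonists; HEK293 cells with Gal4-LXR fusion and GAL4-driven luciferase reporter; potency for activation of Gal4-LXR reporter so compounds are agonists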
# T2 sequence (P55055 whole entry): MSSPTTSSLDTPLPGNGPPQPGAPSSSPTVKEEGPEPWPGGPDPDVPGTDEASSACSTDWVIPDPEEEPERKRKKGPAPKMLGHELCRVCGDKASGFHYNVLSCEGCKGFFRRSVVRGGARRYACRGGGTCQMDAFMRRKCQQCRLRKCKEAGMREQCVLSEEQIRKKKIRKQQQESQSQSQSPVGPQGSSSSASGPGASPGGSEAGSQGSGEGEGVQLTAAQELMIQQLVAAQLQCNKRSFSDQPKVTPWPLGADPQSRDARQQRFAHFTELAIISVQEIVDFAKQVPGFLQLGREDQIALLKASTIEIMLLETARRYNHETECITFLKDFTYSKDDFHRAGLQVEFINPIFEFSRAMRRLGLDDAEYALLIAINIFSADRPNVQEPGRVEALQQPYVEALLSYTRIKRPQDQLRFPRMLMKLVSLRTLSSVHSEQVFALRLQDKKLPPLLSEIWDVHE
# [12] = biological target: Endoplasmic reticulum aminopeptidase 1 (Homo sapiens, UniProt Q9NZ08); assay: inhibition of human ERAP1 enzyme activity – biochemical, cherry-pick, set 2, plate reader, dose response (AID 743314)
# [13] = biological target: Solute carrier family 12 member 2/member 5 (Homo sapiens, UniProt P55011+Q9H2X9); assay: KCC2 and NKCC1 inhibition by rubidium flux, cell-based, NKCC1 counter-screen (AID 1734); format: functional, HEK293
# Prothrombin = Prothrombin (Homo sapiens, UniProt P00734); assay: Thrombin 1536 HTS Dose Response Confirmation. [Related pubchem assays: 1046 (Thrombin 1536 HTS; hits were confirmed in this assay)]; format: functional
# [14] = biological target: T3, Dual specificity protein phosphatase 6 (Rattus norvegicus, UniProt Q64346); assay: inhibition of rat DUSP6 enzyme activity – biochemical, in vitro, primary screen (AID 425)
# T3 sequence (Q64346 whole entry): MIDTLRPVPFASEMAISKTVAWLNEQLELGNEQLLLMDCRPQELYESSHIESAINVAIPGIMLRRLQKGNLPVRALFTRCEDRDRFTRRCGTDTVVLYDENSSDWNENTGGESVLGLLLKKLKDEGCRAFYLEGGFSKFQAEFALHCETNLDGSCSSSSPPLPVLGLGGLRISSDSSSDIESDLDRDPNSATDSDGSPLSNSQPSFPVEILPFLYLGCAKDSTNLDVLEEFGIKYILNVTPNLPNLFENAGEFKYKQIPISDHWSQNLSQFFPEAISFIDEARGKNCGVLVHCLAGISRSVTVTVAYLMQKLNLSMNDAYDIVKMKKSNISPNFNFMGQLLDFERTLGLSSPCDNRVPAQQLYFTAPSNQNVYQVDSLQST
# [15] = biological target: Induced myeloid leukemia cell differentiation protein Mcl-1 (Homo sapiens, UniProt Q07820); format: functional
# Protein skinhead-1 = biological target: T4, Protein skinhead-1 (Caenorhabditis elegans, UniProt P34707); format: functional
# T4 sequence (P34707 whole entry): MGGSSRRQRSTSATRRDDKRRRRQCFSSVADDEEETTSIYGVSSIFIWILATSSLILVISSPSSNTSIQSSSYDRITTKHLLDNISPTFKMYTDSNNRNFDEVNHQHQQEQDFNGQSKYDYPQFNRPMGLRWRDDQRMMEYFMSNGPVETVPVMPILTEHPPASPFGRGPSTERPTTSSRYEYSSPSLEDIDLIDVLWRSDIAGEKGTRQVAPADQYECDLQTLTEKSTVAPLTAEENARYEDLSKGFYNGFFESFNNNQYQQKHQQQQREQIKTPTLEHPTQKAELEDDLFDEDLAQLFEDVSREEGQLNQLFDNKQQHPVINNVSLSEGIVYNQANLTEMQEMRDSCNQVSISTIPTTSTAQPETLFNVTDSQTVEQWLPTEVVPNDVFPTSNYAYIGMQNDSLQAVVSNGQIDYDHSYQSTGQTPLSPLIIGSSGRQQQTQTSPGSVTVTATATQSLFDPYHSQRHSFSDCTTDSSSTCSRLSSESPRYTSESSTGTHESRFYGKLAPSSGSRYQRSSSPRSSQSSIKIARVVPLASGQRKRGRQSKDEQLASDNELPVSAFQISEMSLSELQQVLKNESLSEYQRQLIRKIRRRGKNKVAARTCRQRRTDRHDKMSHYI
# [16] = biological target: Luciferin 4-monooxygenase (Photinus pyralis, UniProt P08659); assay: inhibition of purified Photinus pyralis luciferase – biochemical, luminescence, dose response (AID 1891)
# [17] = Luminescence Cell-Based Dose Confirmation HTS to Identify Inhibitors of Platelet Dense Granule Release. [Related pubchem assays: 1663 (Primary HTS), 1678 (Summary of Project)]; format: functional
structure (smiles),measurement,setting,value
CCCCCCCN1C(Nc2ccccc2)=NC[C@@H]1CC(C)C,IC50,[1],> 96.6 µM (inactive)
O=C(O)CSc1ccnc2cc(Cl)ccc12,IC50,cells [2],> 138 µM (inactive)
same,IC50,Major prion protein,4.04 µM (active)
COc1ccccc1Cn1c(=S)[nH]c2ccccc2c1=O,IC50,cells [2],> 138 µM (inactive)
same,IC50,Major prion protein,3.49 µM (active)
O=C(NCc1nc2ccccc2[nH]1)C1=C[C@H](c2ccccc2)C[C@H](OCc2ccc(CO)cc2)O1,IC50,[3],> 83.3 µM (inactive)
CN1CCC(OC(=O)c2cccc(Cl)c2)CC1,EC50,[4],> 60 µM (not active)
same,EC50,cells [5],0.102 µM (active)
same,AC50,[6],1.3 µM (active)
same,EC50,[7],< 0.1 µM (active)
COc1ccc(OCC(O)CNC(=O)Nc2ccc(Cl)cc2)cc1 (stereo not given),IC50,[3],> 83.3 µM (inactive)
same,IC50,[8],4.66 µM (active)
same,IC50,[9],4.39 µM (active)
same,IC50,[10],83.3 µM (inactive)
Cc1ccc2c(c1)N=C(c1ccccc1)CC(C(Cl)Cl)=N2,EC50,[11],> 67.5 µM (inactive)
CCN(CC)Cc1c(O)ccc2cc(-c3nc4ccccc4n3C)c(=O)oc12,AC50,[12],1.8 µM (active)
O=C(Nc1cccnc1)c1ccc(COc2ccccc2Cl)o1,IC50,[13],12.1 µM (active)
COc1cc(CCC(=O)Nc2cccc(C(F)(F)F)c2)cc(OC)c1OC,IC50,Prothrombin,> 50 µM (not active)
Cc1c(N=c2c(=O)c3ccccc3c2=O)c(=O)n(-c2ccccc2)n1C,IC50,[14],> 100 µM (not active)
O=C(CSc1nnc(-c2ccco2)c(-c2ccco2)n1)c1ccccc1,IC50,[15],3.19 µM (active)
same,IC50,[1],> 96.6 µM (inactive)
COc1cccc(-c2noc(-c3cccs3)n2)c1,EC50,[11],> 67.6 µM (inactive)
same,IC50,Protein skinhead-1,13.7 µM (active)
same,EC50,[16],7.26 µM (active)
same,EC50,[17],> 112 µM (not active)

# Source: ChEMBL document CHEMBL1201862, “PubChem BioAssay data set” (2004)
